Tests used:
Type in all cases: cell-based
TYK2 [1] = biological target: T1, TYK2 (Homo sapiens, UniProt P29597); assay: TYK2 degradation MSD assay in human PBMC cells; design: endogenous in cells; host or cells: human PBMC; conditions: 4 to 24 hours incubation, read-out: TYK2 MSD DC50 rating in human PBMC
Outline: (§1)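 0.4 million cells/well; cpd 9-dose 1:3 titration, top 1–10 μM; 4–24 h, 37° C, 5% CO2; RIPA lysis; TYK2 capture/detection sandwich on MSD, SULFO-TAG anti-rabbit secondary; DC50 via 4-parameter fit.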

TYK2 [2] = biological target: T1, TYK2; assay: TYK2 degradation MSD assay in EBV-B cells; design: endogenous in cells; host or cells: EBV-B cells; conditions: 4 to 24 hours incubation, read-out: TYK2 MSD DC50 rating in EBV-B
Outline: as §1

TYK2 [3] = biological target: T1, TYK2; assay: TYK2 degradation MSD assay in OCI-LY10 cells; design: endogenous in cells; host or cells: EBV-B cells; conditions: 4 to 24 hours incubation, read-out: TYK2 MSD DC50 rating in OCI-LY10
Outline: as §1

T1 sequence (P29597 whole entry): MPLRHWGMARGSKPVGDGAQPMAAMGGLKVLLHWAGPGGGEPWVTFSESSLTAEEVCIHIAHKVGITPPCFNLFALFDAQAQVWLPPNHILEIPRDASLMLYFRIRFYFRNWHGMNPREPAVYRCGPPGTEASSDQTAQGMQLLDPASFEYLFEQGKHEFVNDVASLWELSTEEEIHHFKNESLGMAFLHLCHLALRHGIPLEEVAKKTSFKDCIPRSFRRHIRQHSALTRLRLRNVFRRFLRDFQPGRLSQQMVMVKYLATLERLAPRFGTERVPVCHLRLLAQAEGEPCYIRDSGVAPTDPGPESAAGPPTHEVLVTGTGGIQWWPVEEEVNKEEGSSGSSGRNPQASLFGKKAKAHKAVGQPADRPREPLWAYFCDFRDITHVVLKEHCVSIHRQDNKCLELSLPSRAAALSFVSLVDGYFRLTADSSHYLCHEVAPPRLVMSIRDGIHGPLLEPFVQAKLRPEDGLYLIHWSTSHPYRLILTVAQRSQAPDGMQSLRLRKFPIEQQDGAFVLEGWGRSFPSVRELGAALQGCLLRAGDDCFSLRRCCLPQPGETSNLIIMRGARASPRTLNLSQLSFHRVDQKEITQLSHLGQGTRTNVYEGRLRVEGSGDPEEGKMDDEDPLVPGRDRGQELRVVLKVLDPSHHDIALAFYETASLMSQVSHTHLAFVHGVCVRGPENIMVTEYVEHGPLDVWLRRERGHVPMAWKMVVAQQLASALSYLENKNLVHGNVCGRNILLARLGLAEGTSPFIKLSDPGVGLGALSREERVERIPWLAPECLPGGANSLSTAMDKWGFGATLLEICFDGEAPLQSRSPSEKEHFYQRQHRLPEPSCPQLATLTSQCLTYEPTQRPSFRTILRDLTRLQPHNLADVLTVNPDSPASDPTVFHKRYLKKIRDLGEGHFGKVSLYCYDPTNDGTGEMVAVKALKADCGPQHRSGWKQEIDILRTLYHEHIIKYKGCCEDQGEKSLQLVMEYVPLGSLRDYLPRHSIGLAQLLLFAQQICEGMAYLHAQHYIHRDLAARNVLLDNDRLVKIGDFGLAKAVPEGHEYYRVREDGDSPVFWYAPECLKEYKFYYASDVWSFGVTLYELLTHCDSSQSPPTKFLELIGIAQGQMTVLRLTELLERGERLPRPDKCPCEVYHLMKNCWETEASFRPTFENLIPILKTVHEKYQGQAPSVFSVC

Compound | DC50 (TYK2 [1]) [nM] | DC50 (TYK2 [2]) [nM] | DC50 (TYK2 [3]) [nM]
CNc1cc(Nc2cccn(-c3ccc(C(=O)N4CC(N5CCN(CCc6ccc7c(c6)n(C)c(=O)n7C6CCC(=O)NC6=O)CC5)C4)cn3)c2=O)nn2c(C(=O)N[C@@H]3C[C@@H]3F)cnc12 (stereo partly drawn) [Example K429] | > 100 | 1 to 10 | < 1
CNc1cc(Nc2cccn(-c3ccc(C(=O)N[C@H]4CC[C@H](CN5CCC6(CC5)CN(Cc5cccc7c5n(C)c(=O)n7C5CCC(=O)NC5=O)C6)CC4)cn3)c2=O)nn2c(C(=O)N[C@@H]3C[C@@H]3F)cnc12 (stereo partly drawn) [Example K430] | > 100 | 1 to 10 | < 1
CNc1cc(Nc2cccc(-c3ccc(CN4CCN(CC#Cc5cccc6c5n(C)c(=O)n6C5CCC(=O)NC5=O)CC4)cn3)c2)nn2c(C(=O)N[C@@H]3C[C@@H]3F)cnc12 (stereo partly drawn) [Example K432] | > 100 | > 100 | < 1
Cn1c(=O)n(C2CCC(=O)NC2=O)c2cccc(C#CCN3CCN(Cc4ccc(-c5cccc(Nc6ccc7ncc(C(=O)NC8CC8)n7n6)c5)nc4)CC3)c21 (stereo not drawn) [Example K433] | > 100 | > 100 | > 100
CNc1cc(Nc2cccc(-c3ccc(CN4CCC(C#Cc5ccc6c(c5)n(C)c(=O)n6C5CCC(=O)NC5=O)CC4)cn3)c2)nn2c(C(=O)N[C@@H]3C[C@@H]3F)cnc12 (stereo partly drawn) [Example K436] | > 100 | > 100 | < 1
CNc1cc(Nc2cccn(-c3ccc(CNCc4ccc(N5CCC(N6CCC(c7ccc8c(c7)n(C)c(=O)n8C7CCC(=O)NC7=O)C6)CC5)cc4)cn3)c2=O)nn2c(C(=O)N[C@@H]3C[C@@H]3F)cnc12 (stereo partly drawn) [Example K437] | > 100 | > 100 | < 1
CNc1cc(Nc2cccn(-c3ccc(C(=O)N(C)C4CCN(c5ccc(-c6ccc7c(c6)n(C)c(=O)n7C6CCC(=O)NC6=O)cc5)C4)cn3)c2=O)nn2c(C(=O)N[C@@H]3C[C@@H]3F)cnc12 (stereo partly drawn) [Example K439] | > 100 | > 100 | < 1
CNc1cc(Nc2cccn(-c3ccc(C(=O)N4CCN(CCOc5cccc(-c6ccc7c(c6)n(C)c(=O)n7C6CCC(=O)NC6=O)c5)CC4)cn3)c2=O)nn2c(C(=O)N[C@@H]3C[C@@H]3F)cnc12 (stereo partly drawn) [Example K440] | > 100 | > 100 | < 1
CNc1cc(Nc2cccn(-c3ccc(C(=O)N4CCC5(CCN(c6ncc(C#Cc7ccc8c(c7)n(C)c(=O)n8C7CCC(=O)NC7=O)cn6)C5=O)C4)cn3)c2=O)nn2c(C(=O)N[C@@H]3C[C@@H]3F)cnc12 (stereo partly drawn) [Example K441] | > 100 | > 100 | < 1
CNc1cc(Nc2cccn(-c3ccc(C(=O)N4CCC(OC5CC(c6cccc7c6n(C)c(=O)n7C6CCC(=O)NC6=O)C5)CC4)cn3)c2=O)nn2c(C(=O)N[C@@H]3C[C@@H]3F)cnc12 (stereo partly drawn) [Example K442] | > 100 | > 100 | < 1
CNc1cc(Nc2cccn(-c3ccc(C(=O)NC4CCC(C(=O)N5CCC6(CN(CC#Cc7ccc8c(c7)n(C)c(=O)n8C7CCC(=O)NC7=O)C6)C5)CC4)cn3)c2=O)nn2c(C(=O)N[C@@H]3C[C@@H]3F)cnc12 (stereo partly drawn) [Example K444] | 1 to 10 | 1 to 10 | 1 to 10
CNc1cc(Nc2cccn(-c3ccc(C(=O)NC4CCC(CN(C)CC5CCN(Cc6ccc7c(c6)n(C)c(=O)n7C6CCC(=O)NC6=O)CC5)CC4)cn3)c2=O)nn2c(C(=O)N[C@@H]3C[C@@H]3F)cnc12 (stereo partly drawn) [Example K447] | > 100 | > 100 | < 1
Cn1c(=O)n(C2CCC(=O)NC2=O)c2cccc(N3CCC4(CC3)CN(Cc3ccc(-c5cccc(Nc6ccc7ncc(C(=O)NC8CC8)n7n6)c5)nc3)C4)c21 (stereo not drawn) [Example K452] | > 100 | > 100 | > 100
CNc1cc(Nc2cccn(-c3ccc(CN4CCN([C@H]5CC[C@H](c6ccc(-c7ccc8c(c7)n(C)c(=O)n8C7CCC(=O)NC7=O)cc6)CC5)CC4)cn3)c2=O)nn2c(C(=O)N[C@@H]3C[C@@H]3F)cnc12 (stereo partly drawn) [Example K454] | > 100 | < 1 | < 1
Cn1c(=O)n(C2CCC(=O)NC2=O)c2ccc(-c3ccc(N4CCN(Cc5ccc(-c6cccc(Oc7ccc8ncc(C(=O)NC9CC9)n8n7)c6)nc5)CC4)cc3)cc21 (stereo not drawn) [Example K456] | > 100 | > 100 | > 100
CNc1cc(Nc2cccn(-c3ccc(CN4CCN(c5ccc(-c6ccc7c(c6)n(C)c(=O)n7C6CCC(=O)NC6=O)cn5)C(=O)C4)cn3)c2=O)nn2c(C(=O)N[C@@H]3C[C@@H]3F)cnc12 (stereo partly drawn) [Example K457] | > 100 | > 100 | < 1
Cn1c(=O)n(C2CCC(=O)NC2=O)c2ccc(-c3ccc(N4CCN(Cc5ccc(-c6cccc(Nc7ccc8ncc(C(=O)NC9CC9)n8n7)c6)nc5)CC4=O)nc3)cc21 (stereo not drawn) [Example K459] | > 100 | > 100 | > 100
CNc1cc(Nc2cccc(-c3ccc(CN4CCN(c5cccc6c5n(C)c(=O)n6C5CCC(=O)NC5=O)CC4)cn3)c2)nn2c(C(=O)N[C@@H]3C[C@@H]3F)cnc12 (stereo partly drawn) [Example K460] | > 100 | > 100 | < 1
CNc1cc(Nc2cccc(-c3ccc(CNCc4ccc(N5CCC(N6CCC(c7ccc8c(c7)n(C)c(=O)n8C7CCC(=O)NC7=O)C6)CC5)cc4)cn3)c2)nn2c(C(=O)N[C@@H]3C[C@@H]3F)cnc12 (stereo partly drawn) [Example K461] | > 100 | > 100 | 1 to 10
CNc1cc(Nc2cccn(-c3ccc(C(=O)N4CCC(N5CCC(N6CCN(c7cccc8c7n(C)c(=O)n8C7CCC(=O)NC7=O)CC6)CC5)CC4)cn3)c2=O)nn2c(C(=O)N[C@@H]3C[C@@H]3F)cnc12 (stereo partly drawn) [Example K462] | > 100 | > 100 | 1 to 10
CNc1cc(Nc2cccc(-c3ccc(CN4CCN(C5CCC(c6ccc(-c7ccc8c(c7)n(C)c(=O)n8C7CCC(=O)NC7=O)cc6)CC5)CC4)cn3)c2)nn2c(C(=O)N[C@@H]3C[C@@H]3F)cnc12 (stereo partly drawn) [Example K463] | > 100 | > 100 | 1 to 10
CNc1cc(Nc2cccc(-c3ccc(CN4CC5(CCN(c6cccc7c6n(C)c(=O)n7C6CCC(=O)NC6=O)CC5)C4)cn3)c2)nn2c(C(=O)N[C@@H]3C[C@@H]3F)cnc12 (stereo partly drawn) [Example K464] | > 100 | > 100 | 1 to 10
CNc1cc(Nc2cccc(N3CCC(CN4CCC(C#Cc5cccc6c5n(C)c(=O)n6C5CCC(=O)NC5=O)CC4)CC3)c2)nn2c(C(=O)N[C@@H]3C[C@@H]3F)cnc12 (stereo partly drawn) [Example K465] | > 100 | > 100 | 1 to 10

Further lines, results first:

DC50 (TYK2 [1]) [nM] | DC50 (TYK2 [2]) [nM] | DC50 (TYK2 [3]) [nM] | Compound
> 100 | > 100 | 1 to 10 | CNc1cc(Nc2cccc(-c3ccc(CN4CCC(C#Cc5cccc6c5n(C)c(=O)n6C5CCC(=O)NC5=O)CC4)cn3)c2)nn2c(C(=O)N[C@@H]3C[C@@H]3F)cnc12 (stereo partly drawn) [Example K431]
> 100 | > 100 | < 1 | CNc1cc(Nc2cccc(-c3ccc(CN4CCN(C5CCN(c6ccc7c(c6)n(C)c(=O)n7C6CCC(=O)NC6=O)CC5)CC4)cn3)c2)nn2c(C(=O)N[C@@H]3C[C@@H]3F)cnc12 (stereo partly drawn) [Example K435]
> 100 | > 100 | 1 to 10 | CNc1cc(Nc2cccn(-c3ccc(C(=O)N(C)CCCOC4CCN(c5ccc6c(c5)n(C)c(=O)n6C5CCC(=O)NC5=O)CC4)cn3)c2=O)nn2c(C(=O)N[C@@H]3C[C@@H]3F)cnc12 (stereo partly drawn) [Example K438]
> 100 | > 100 | < 1 | CNc1cc(Nc2cccn(-c3ccc(C(=O)N4CCC(CN(C)C5CCN(c6ccc7c(c6)n(C)c(=O)n7C6CCC(=O)NC6=O)CC5)C4)cn3)c2=O)nn2c(C(=O)N[C@@H]3C[C@@H]3F)cnc12 (stereo partly drawn) [Example K445]
> 100 | > 100 | < 1 | CNc1cc(Nc2cccn(-c3ccc(C(=O)N4CCC(N(C)CC5CCN(c6ccc(-c7ccc8c(c7)n(C)c(=O)n8C7CCC(=O)NC7=O)cc6)C5)CC4)cn3)c2=O)nn2c(C(=O)N[C@@H]3C[C@@H]3F)cnc12 (stereo partly drawn) [Example K446]
> 100 | > 100 | < 1 | CNc1cc(Nc2cccn(-c3ccc(C(=O)N[C@H]4CC[C@H](CN(C)C5CCN(Cc6cccc7c6n(C)c(=O)n7C6CCC(=O)NC6=O)CC5)CC4)cn3)c2=O)nn2c(C(=O)N[C@@H]3C[C@@H]3F)cnc12 (stereo partly drawn) [Example K449]
> 100 | > 100 | < 1 | CNc1cc(Nc2cccn(-c3ccc(C(=O)N4CC(CN5CCC(c6cccc7c6n(C)c(=O)n7C6CCC(=O)NC6=O)CC5)C4)cn3)c2=O)nn2c(C(=O)N[C@@H]3C[C@@H]3F)cnc12 (stereo partly drawn) [Example K450]
> 100 | > 100 | < 1 | CNc1cc(Nc2cccn(-c3ccc(C(=O)N4CCC(CN5CCCC(c6cccc7c6n(C)c(=O)n7C6CCC(=O)NC6=O)C5)CC4)cn3)c2=O)nn2c(C(=O)N[C@@H]3C[C@@H]3F)cnc12 (stereo partly drawn) [Example K451]
> 100 | < 1 | < 1 | CNc1cc(Nc2cccn(-c3ccc(C(=O)N4CCC(N5CCC(N6CCN(c7ccc8c(c7)n(C)c(=O)n8C7CCC(=O)NC7=O)CC6)CC5)CC4)cn3)c2=O)nn2c(C(=O)N[C@@H]3C[C@@H]3F)cnc12 (stereo partly drawn) [Example K453]
> 100 | < 1 | < 1 | CNc1cc(Nc2cccc(-c3ccc(CN4CCN(c5ccc(-c6ccc7c(c6)n(C)c(=O)n7C6CCC(=O)NC6=O)cn5)C(=O)C4)cn3)c2)nn2c(C(=O)N[C@@H]3C[C@@H]3F)cnc12 (stereo partly drawn) [Example K455]

From patent publication US20250051338A1, “TYK2 DEGRADERS AND USES THEREOF” (Kymera Therapeutics, Inc., priority 2021, published 2025)
